Here are results for 35 compounds from patent publication US9828369B2, “Isoquinoline derivatives useful as inhibitors of diacylglyceride O-acyltransferase 2” (Merck Sharp & Dohme Corp., priority 2014, dated 2017).

The structures appear in SMILES notation. pIC50: −log10 of the molar value.

The target of the first experiment is hDGAT2 (Homo sapiens (Human), UniProt Q96PD7). Kind of experiment: DGAT2 enzymatic activity assay (triolein formation, LC/MS/MS).
Chain of hDGAT2 (Q96PD7 whole entry): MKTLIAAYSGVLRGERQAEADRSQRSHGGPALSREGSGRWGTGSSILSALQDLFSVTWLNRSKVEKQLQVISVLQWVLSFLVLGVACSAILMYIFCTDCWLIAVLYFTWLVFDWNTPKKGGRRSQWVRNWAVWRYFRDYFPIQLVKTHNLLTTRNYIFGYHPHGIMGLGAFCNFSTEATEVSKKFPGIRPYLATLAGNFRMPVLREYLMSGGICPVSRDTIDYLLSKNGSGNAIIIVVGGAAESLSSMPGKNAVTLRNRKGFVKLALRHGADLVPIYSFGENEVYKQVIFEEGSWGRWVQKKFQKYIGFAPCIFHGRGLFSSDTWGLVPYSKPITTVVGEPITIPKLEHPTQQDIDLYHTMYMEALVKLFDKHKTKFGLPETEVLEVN
Settings: not given
What is called pIC50 is −log10 of the IC50, conventionally taken in molar units. In turn, `COc1cccc(-c2ccc(CNC(=O)[C@@H]3COC(c4ccccc4)=N3)c3cnccc23)c1` (racemic) [Example 42, (R/S)-N-((5-(3-methoxyphenyl)isoquinolin-8-yl)methyl)-2-phenyl-4,5-dihydrooxazole-4-carboxamide] showed a pIC50 of 5.45. Still for that read-out and setting: the same measure for `CC[C@H](C(=O)NCc1ccc(-c2cccc(OC)c2)c2ccncc12)c1ccc(C(F)(F)F)c(F)c1` (racemic) [Example 126, (R/S)-2-(3-fluoro-4-(trifluoromethyl)phenyl)-N-((5-(3-methoxyphenyl)isoquinolin-8-yl)methyl)butanamide]: 6.43; for `COc1cccc(-c2ccc(CNC(=O)[C@H](C)c3ccc4cc(OC)ccc4c3)c3cnccc23)c1` (racemic) [Example 142, (R/S)-2-(6-methoxynaphthalen-2-yl)-N-((5-(3-methoxyphenyl)isoquinolin-8-yl)methyl)propanamide]: 6.93. Still for that read-out and setting: next, `COc1cccc(-c2ccc(CNC(=O)[C@H](C)c3ccc(CC(C)C)cc3)c3cnccc23)c1` (racemic) [Example 146, (R/S)-2-(4-isobutylphenyl)-N-((5-(3-methoxyphenyl)isoquinolin-8-yl)methyl)propanamide]: 6.03. Same read-out and setting: the same measure for `COC(=O)c1cccc(-c2ccc(CNC(=O)c3nccc4ccccc34)c3cnccc23)c1` [Example 11, 8-((isoquinoline-1-carboxamido)methyl)-5-(3-(methoxycarbonyl)phenyl) isoquinolin-2-ium]: 6.79.

The experiment is the same for the next values; noted with them: read-out: IC50 values for inhibition of DGAT2; membrane prep of Sf-9 cells expressing hDGAT2; 25 μM diolein, 10 μM oleoyl-CoA; room temperature; triolein by LC/MS/MS.
In the case of `N#Cc1cccc(-c2ccc(CNC(=O)[C@@H]3C[C@H]3c3ccccc3)c3cnccc23)c1` (relative stereo) [Example 16, (trans)-N-((5-(3-cyanophenyl)isoquinolin-8-yl)methyl)-2-phenylcyclopropanecarboxamide], the pIC50 is 5.46. Still for that read-out and setting: the same measure for `COc1ccc([C@@H]2C[C@@H]2C(=O)NCc2ccc(-c3cccc(OC)c3)c3ccncc23)cc1` (relative stereo) [Example 24, (cis)-2-(4-methoxyphenyl)-N-((5-(3-methoxyphenyl)isoquinolin-8-yl)methyl)cyclopropanecarboxamide]: 6.23; for `COc1cccc(-c2ccc(CNC(=O)[C@H]3C[C@@H]3c3nc(C)no3)c3cnccc23)c1` (relative stereo) [Example 108, (trans)-N-((5-(3-methoxyphenyl)isoquinolin-8-yl)methyl)-2-(3-methyl-1,2,4-oxadiazol-5-yl) cyclopropanecarboxamide]: 6.23. As to `COc1cccc(-c2ccc(CNC(=O)[C@@H]3C[C@@H]3c3ccc(C(F)(F)F)cc3)c3cnccc23)c1` (relative stereo) [Example 144, (cis)-N-((5-(3-methoxyphenyl)isoquinolin-8-yl)methyl)-2-(4-(trifluoromethyl)phenyl) cyclopropanecarboxamide], the pIC50 was 5.59. On to `COC(=O)c1cccc(-c2ccc(CNC(=O)Cc3ccc(C(F)(F)F)cc3)c3cnccc23)c1` [Example 2, methyl 3-(8-((2-(4-(trifluoromethyl)phenyl)acetamido)methyl)isoquinolin-5-yl)benzoate], for which the pIC50 was 7.07. Same read-out and setting: next, `COC(=O)c1cccc(-c2ccc(CNC(=O)[C@@H]3C[C@H]3c3ccccc3)c3cnccc23)c1` [Example 3, methyl 3-(8-(((1R,2R)-2-phenylcyclopropanecarboxamido)methyl)isoquinolin-5-yl)benzoate]: 7.08. `COC(=O)c1cccc(-c2ccc(CNC(=O)C3CC3c3nc(C)no3)c3cnccc23)c1` (centres unmarked) [Example 4, methyl 3-(8-((2-(3-methyl-1,2,4-oxadiazol-5-yl)cyclopropane-carboxamido)methyl)isoquinolin-5-yl)benzoate]: the pIC50 was 7.02. Take `COC(=O)c1cccc(-c2ccc(CNC(=O)C3CCN(c4ccc(C(F)(F)F)cc4)CC3)c3cnccc23)c1` [Example 5, methyl 3-(8-((1-(4-(trifluoromethyl)phenyl)piperidine-4-carboxamido)methyl)isoquinolin-5-yl)benzoate]: the pIC50 was 7.00. On to `COC(=O)c1cccc(-c2ccc(CNC(=O)Cc3ccc(Oc4ccccc4)cc3)c3cnccc23)c1` [Example 6, methyl 3-(8-((2-(4-phenoxyphenyl)acetamido)methyl)isoquinolin-5-yl)benzoate], for which the pIC50 is 6.99. On the same count and under the same terms, next, `COC(=O)c1cccc(-c2ccc(CNC(=O)c3cc(C(C)(C)C)nn3C)c3cnccc23)c1` [Example 7, methyl 3-(8-((3-(tert-butyl)-1-methyl-1H-pyrazole-5-carboxamido)methyl)isoquinolin-5-yl)benzoate]: 6.95.

Regarding `COC(=O)c1cccc(-c2ccc(CNC(=O)c3cnn(-c4ccccc4)c3C(F)(F)F)c3cnccc23)c1` [Example 8, methyl 3-(8-((1-phenyl-5-(trifluoromethyl)-1H-pyrazole-4-carboxamido)methyl)isoquinolin-5-yl)benzoate], the pIC50 is 6.91.

Turning to `CCCc1cc(C(=O)NCc2ccc(-c3cccc(C(=O)OC)c3)c3ccncc23)n(C)n1` [Example 9, methyl 3-(8-((1-methyl-3-propyl-1H-pyrazole-5-carboxamido)methyl)isoquinolin-5-yl)benzoate], the pIC50 is 6.88. Still for that read-out and setting: the same measure for `COC(=O)c1cccc(-c2ccc(CNC(=O)C3CC34CCCC4)c3cnccc23)c1` (centres unmarked) [Example 10, methyl 3-(8-((spiro[2.4]heptane-1-carboxamido)methyl)isoquinolin-5-yl)benzoate]: 6.79; for `COC(=O)c1cccc(-c2ccc(CNC(=O)c3cccc4cnccc34)c3cnccc23)c1` [Example 12, 8-((isoquinoline-5-carboxamido)methyl)-5-(3-(methoxycarbonyl)phenyl) isoquinolin-2-ium]: 6.71.

As for `COC(=O)c1cccc(-c2ccc(CNC(=O)c3ccnn3C)c3cnccc23)c1` [Example 13, methyl 3-(8-((1-methyl-1H-pyrazole-5-carboxamido)methyl)isoquinolin-5-yl)benzoate], the pIC50 was 5.91. Same read-out and setting: the same measure for `CCOC(=O)c1cccc(-c2ccc(CNC(=O)C3CC3c3ccccc3)c3cnccc23)c1` (centres unmarked) [Example 14, ethyl 3-(8-((2-phenylcyclopropanecarboxamido)methyl)isoquinolin-5-yl)benzoate]: 7.15; for `CCOc1cccc(-c2ccc(CNC(=O)C3CC3c3ccccc3)c3cnccc23)c1` (centres unmarked) [Example 15, N-((5-(3-ethoxyphenyl)isoquinolin-8-yl)methyl)-2-phenylcyclopropanecarboxamide]: 6.94. The same measure, in the same setting: next, `O=C(NCc1ccc(-c2cccc(OC(F)(F)F)c2)c2ccncc12)C1CC1c1ccccc1` (centres unmarked) [Example 17, 2-phenyl-N-((5-(3-(trifluoromethoxy)phenyl)isoquinolin-8-yl)methyl)cyclopropanecarboxamide]: 5.43; `COCc1cccc(-c2ccc(CNC(=O)C3CC3c3ccccc3)c3cnccc23)c1` (centres unmarked) [Example 18, N-((5-(3-(methoxymethyl)phenyl)isoquinolin-8-yl)methyl)-2-phenylcyclopropanecarboxamide]: 6.56; `CC(C)Oc1cccc(-c2ccc(CNC(=O)C3CC3c3ccccc3)c3cnccc23)c1` (centres unmarked) [Example 19, N-((5-(3-isopropoxyphenyl)isoquinolin-8-yl)methyl)-2-phenylcyclopropanecarboxamide]: 6.05. Still for that read-out and setting: next, `CC(C)OC(=O)c1cccc(-c2ccc(CNC(=O)C3CC3c3ccccc3)c3cnccc23)c1` (centres unmarked) [Example 20, isopropyl 3-(8-((2-phenylcyclopropanecarboxamido)methyl)isoquinolin-5-yl)benzoate]: 5.73.

`NC(=O)c1cccc(-c2ccc(CNC(=O)C3CC3c3ccccc3)c3cnccc23)c1` (centres unmarked) [Example 22, 3-(8-((2-phenylcyclopropanecarboxamido)methyl)isoquinolin-5-yl)benzamide]: the pIC50 was 5.20. Regarding `COc1ccc([C@H]2C[C@@H]2C(=O)NCc2ccc(-c3cccc(OC)c3)c3ccncc23)cc1` [Example 23, (1S,2S)-2-(4-methoxyphenyl)-N-((5-(3-methoxyphenyl)isoquinolin-8-yl)methyl)cyclopropanecarboxamide], the pIC50 was 5.00. Consider `COc1cccc(-c2ccc(CNC(=O)c3cc(C4CC4)on3)c3cnccc23)c1` [Example 26, 5-cyclopropyl-N-((5-(3-methoxyphenyl)isoquinolin-8-yl)methyl)isoxazole-3-carboxamide], for which the pIC50 is 5.69. On the same count and under the same terms, next, `COc1cccc(-c2ccc(CNC(=O)CC(c3ccccc3)c3ccco3)c3cnccc23)c1` (centres unmarked) [Example 27, 3-(furan-2-yl)-N-((5-(3-methoxyphenyl)isoquinolin-8-yl)methyl)-3-phenylpropanamide]: 5.17; `COc1cccc(-c2ccc(CNC(=O)c3cncc(Br)c3)c3cnccc23)c1` [Example 28, 5-bromo-N-((5-(3-methoxyphenyl)isoquinolin-8-yl)methyl)nicotinamide]: 5.41; `COc1cccc(-c2ccc(CNC(=O)c3cc(C(F)(F)F)n[nH]3)c3cnccc23)c1` [Example 29, N-((5-(3-methoxyphenyl)isoquinolin-8-yl)methyl)-3-(trifluoromethyl)-1H-pyrazole-5-carboxamide]: 5.75. The same measure, in the same setting: next, `COc1cccc(-c2ccc(CNC(=O)CCc3nc(-c4ccccc4)no3)c3cnccc23)c1` [Example 30, N-((5-(3-methoxyphenyl)isoquinolin-8-yl)methyl)-3-(3-phenyl-1,2,4-oxadiazol-5-yl)propanamide]: 6.09. Same read-out and setting: next, `COc1cccc(-c2ccc(CNC(=O)Cc3cccc(Cl)c3Cl)c3cnccc23)c1` [Example 31, 2-(2,3-dichlorophenyl)-N-((5-(3-methoxyphenyl)isoquinolin-8-yl)methyl)acetamide]: 6.05. Regarding `COc1cccc(-c2ccc(CNC(=O)c3cccc4cccnc34)c3cnccc23)c1` [Example 32, N-((5-(3-methoxyphenyl)isoquinolin-8-yl)methyl)quinoline-8-carboxamide], the pIC50 is 5.70.
